Data from paper PMC12023841, “Unlocking the Gates: A Novel Diagnostic Molecule for Quantifying Efflux Levels in Gram‐Positive Bacteria” (Advanced Healthcare Materials, 2025).
Read-outs that look alike come from different tables or passages of the source.

What was measured:
S. epidermidis strains [1] = type: cell-based
S. aureus strains [2] = type: cell-based
S. aureus strains [3] = conditions: cited from earlier work
S. epidermidis strains [4] = test system: S. epidermidis strains; parameters: method as in earlier work; conditions: ref [5], cited from earlier work
NorA efflux pump = NorA efflux pump (Staphylococcus aureus, UniProt P0A0J7); type: cell-based, S. aureus; conditions: 5a4 1 µg mL^−1
Chain of NorA efflux pump (P0A0J7 whole entry): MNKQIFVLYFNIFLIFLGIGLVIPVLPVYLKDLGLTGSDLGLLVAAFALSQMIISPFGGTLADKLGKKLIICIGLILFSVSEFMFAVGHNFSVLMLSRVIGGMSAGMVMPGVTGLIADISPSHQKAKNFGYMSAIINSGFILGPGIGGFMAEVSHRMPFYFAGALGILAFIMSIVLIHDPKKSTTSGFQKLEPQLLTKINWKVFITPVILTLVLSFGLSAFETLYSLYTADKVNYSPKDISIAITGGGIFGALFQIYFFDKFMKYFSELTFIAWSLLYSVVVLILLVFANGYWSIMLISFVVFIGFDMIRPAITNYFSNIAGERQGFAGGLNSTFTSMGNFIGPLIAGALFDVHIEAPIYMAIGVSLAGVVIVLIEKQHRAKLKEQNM

[5] = Precipitation of reserpine in the presence of 5a4; type: physicochemical; conditions: text printed in Figure 7C

## COc1c(N2C[C@@H]3CCCN[C@@H]3C2)c(F)cc2c(=O)c(C(=O)O)cn(C3CC3)c12 [MXF, Moxifloxacin]
S. epidermidis strains [1]
  Susceptibility profile: R
S. epidermidis strains [1]; strain BIOS-V24
  Susceptibility profile: S
S. epidermidis strains [1]; strain BIOS-V282
  Susceptibility profile: S
S. aureus strains [2]
  Susceptibility profile: R and S
S. aureus strains [2]; […]
  Susceptibility profile: S
S. aureus strains [2]; strain BIOS-H1
  Susceptibility profile: S
S. aureus strains [2]; strain BIOS-H2
  Susceptibility profile: S
S. aureus strains [2]; strain BIOS-H3
  Susceptibility profile: S
S. aureus strains [2]; strain BIOS-H5
  Susceptibility profile: S
S. aureus strains [2]; strain BIOS-H6
  Susceptibility profile: S
S. aureus strains [2]; strain BIOS-H12
  Susceptibility profile: S
S. aureus strains [2]; strain BIOS-H13
  Susceptibility profile: S
S. aureus strains [2]; strain BIOS-H17
  Susceptibility profile: S
S. aureus strains [2]; strain BIOS-H20
  Susceptibility profile: S
S. aureus strains [2]; strain BIOS-H21
  Susceptibility profile: S
S. aureus strains [2]; strain BIOS-H22
  Susceptibility profile: S
S. aureus strains [2]; strain BIOS-H25
  Susceptibility profile: S
S. aureus strains [2]; strain BIOS-H28
  Susceptibility profile: S
S. aureus strains [2]; strain BIOS-H29
  Susceptibility profile: S
S. aureus strains [2]; strain BIOS-H30
  Susceptibility profile: S
S. aureus strains [2]; strain BIOS-H32
  Susceptibility profile: S
S. aureus strains [2]; strain BIOS-V21
  Susceptibility profile: S
S. aureus strains [2]; strain BIOS-V31
  Susceptibility profile: S
S. aureus strains [2]; strain BIOS-V60
  Susceptibility profile: S
S. aureus strains [2]; strain BIOS-V61
  Susceptibility profile: S
S. aureus strains [2]; strain BIOS-V62
  Susceptibility profile: S
S. aureus strains [2]; strain BIOS-V74
  Susceptibility profile: S
S. aureus strains [2]; strain BIOS-V75
  Susceptibility profile: S
S. aureus strains [2]; strain BIOS-V85
  Susceptibility profile: S
S. aureus strains [2]; strain BIOS-V118
  Susceptibility profile: S
S. aureus strains [2]; strain BIOS-V128
  Susceptibility profile: S
S. aureus strains [2]; strain BIOS-V147
  Susceptibility profile: S
S. aureus strains [2]; strain BIOS-V151
  Susceptibility profile: S
S. aureus strains [2]; strain BIOS-V156
  Susceptibility profile: S
S. aureus strains [2]; strain BIOS-V157
  Susceptibility profile: S
S. aureus strains [2]; strain BIOS-V158
  Susceptibility profile: S
S. aureus strains [2]; strain BIOS-V168
  Susceptibility profile: S
S. aureus strains [2]; strain BIOS-V172
  Susceptibility profile: S
S. aureus strains [2]; strain BIOS-V178
  Susceptibility profile: S
S. aureus strains [2]; strain BIOS-V203
  Susceptibility profile: S
S. aureus strains [2]; strain BIOS-V245
  Susceptibility profile: S
S. aureus strains [2]; strain BIOS-V250
  Susceptibility profile: S
S. aureus strains [2]; strain BIOS-V257
  Susceptibility profile: S
S. aureus strains [2]; strain BIOS-V279
  Susceptibility profile: S
S. aureus strains [2]; strain BIOS-V295
  Susceptibility profile: S
S. aureus strains [3]; strain ATCC25923, ref [4]
  Susceptibility profile: S
S. aureus strains [3]; strain SA-1199, ref [2]
  Susceptibility profile: S
S. aureus strains [3]; strain SA-1199B, ref [2]
  Susceptibility profile: S
S. aureus strains [3]; strain SA-K1712, ref [3]
  Susceptibility profile: S
S. aureus strains [3]; strain SA-K1748, ref [3]
  Susceptibility profile: R
S. aureus strains [3]; strain SA-K1758, ref [2]
  Susceptibility profile: S
S. aureus strains [3]; strain SA-K2068, ref [3]
  Susceptibility profile: R
S. epidermidis strains [4]; strain ATCC12228
  Susceptibility profile: S
S. epidermidis strains [4]; strain ATCC12228_EtBr
  Susceptibility profile: R

## COC(=O)[C@H]1[C@H]2C[C@@H]3c4[nH]c5cc(OC)ccc5c4CCN3C[C@H]2C[C@@H](OC(=O)c2cc(OC)c(OC)c(OC)c2)[C@@H]1OC [reserpine]
NorA efflux pump; SA‐1199B
  change of 5a4 fluorescent intensity with reserpine: drastic increase
NorA efflux pump; SA‐1199 and SA‐1199B
  reserpine concentration giving significant increase (p < 0.01) in 5a4 fluorescence intensity versus untreated cells: ≥ 10 µg/mL
NorA efflux pump; SA‐K1758 (norA‐deficient)
  change of 5a4 fluorescent intensity with reserpine: no discernible change
[5]
  Precipitation of reserpine (concentration): 20 to 30 µg/mL
